Experiments:
Format in all cases: in vivo
[1] = tested on: redroot pigweed (Amaranthus retroflexus, AMARE); assay: Pre-emerge test, greenhouse herbicide activity screening; conditions: pre-emerge, 14 days after application
Procedure, shortened: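 Compounds in acetone were track-sprayed at 15-1000 g ai/ha (187 l/ha) on sandy loam pots: pre-emerge one day after seeding, post-emerge at 2-3 leaf stage with 0.25% v/v non-ionic surfactant. Phytotoxicity was rated 14 days later on a 0 (no damage) to 100 (complete death) scale.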

[2] = tested on: field corn (Zea mays L., var. Dekalb 535, CORN); assay: Pre-emerge test, crop safety; conditions: pre-emerge, 14 days after application; for phytotoxicity rating CORN: rating scale 0-100; for phytotoxicity rating CORN (crop damage): scale 0-100
Procedure, shortened: (§1)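 Plants grown in 10 cm pots of sandy loam mix received acetone-dissolved compounds through a moving flat-fan nozzle. Doses ranged from 15 to 1000 g ai/ha. Pre-emerge pots were seeded one day earlier, post-emerge pots 8–21 days earlier. Fourteen days on, each pot was graded 0–100 for damage.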

[3] = tested on: upland rice (Oryza sp., var. Tebonnet, RICE); assay: Pre-emerge test, crop safety; conditions: pre-emerge, 14 days after application; for phytotoxicity rating RICE: rating scale 0-100; for phytotoxicity rating RICE (crop damage): scale 0-100
Procedure, shortened: as §1

[4] = tested on: common ragweed (Ambrosia artemisizfolia L., AMBEL); assay: Pre-emerge test, greenhouse herbicide activity screening; conditions: pre-emerge, 14 days after application
Procedure, shortened: (§2)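 Compounds in acetone were track-sprayed at 15–1000 g ai/ha: pre-emergence onto soil sown the previous day, then top-watered to incorporate and later bottom-watered; post-emergence onto 2–3 leaf plants with 0.25% v/v surfactant, bottom-watered only. Ratings on a 0–100 phytotoxicity scale were taken at day 14.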

[5] = tested on: lambsquarters (Chenopodium album, CHEAL); assay: as above; conditions: pre-emerge, 14 days after application
Procedure, shortened: as §2

[6] = tested on: velvetleaf (Abutilon theophrasti, ABUTH); assay: as above; conditions: pre-emerge, 14 days after application
Procedure, shortened: as §2

[7] = tested on: large crabgrass (Digitaria sanguinalis, DIGSA); assay: as above; conditions: pre-emerge, 14 days after application
Procedure, shortened: as §2

[8] = tested on: green foxtail (Setaria viridis, SETVI); assay: as above; conditions: pre-emerge, 14 days after application
Procedure, shortened: as §2

[9] = tested on: barnyardgrass (Echinochloa crus-galli, ECHCG); assay: as above; conditions: pre-emerge, 14 days after application
Procedure, shortened: as §2

[10] = tested on: sicklepod (Cassia obtusifolia, CASOB); assay: as above; conditions: pre-emerge, 14 days after application
Procedure, shortened: as §2

[11] = tested on: ivyleaf morningglory (Ipomoea hederacea, IPOHE); assay: as above; conditions: pre-emerge, 14 days after application
Procedure, shortened: as §2

[12] = tested on: johnsongrass (Sorghum halepense, SORHA); assay: as above; conditions: pre-emerge, 14 days after application
Procedure, shortened: as §2

[13] = tested on: field corn (Zea mays L., var. Dekalb 535, CORN); assay: Post-emerge test, crop safety; conditions: 14 days after application; for Post-emerge phytotoxicity rating CORN (crop damage): rating scale 0-100 (0 no damage, 100 complete death); for phytotoxicity rating CORN: post-emerge, rating scale 0-100
Procedure, shortened: (§3)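 Rating: 0–100 visual injury, 14 DAA. Application: acetone, 187 l/ha, 15–1000 g ai/ha, flat-fan track sprayer with nozzle 40–45 cm above soil or canopy. Post-emerge runs used 0.25% v/v surfactant on 2–3 leaf plants.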

[14] = tested on: upland rice (Oryza sp., var. Tebonnet, RICE); assay: Post-emerge test, crop safety; conditions: 14 days after application; for Post-emerge phytotoxicity rating RICE (crop damage): rating scale 0-100 (0 no damage, 100 complete death); for phytotoxicity rating RICE: post-emerge, rating scale 0-100
Procedure, shortened: as §3

[15] = tested on: redroot pigweed (Amaranthus retroflexus, AMARE); assay: Post-emerge test, greenhouse herbicide activity screening; conditions: 14 days after application; for Post-emerge Herbicidal Activity, phytotoxicity rating AMARE: rating scale 0-100 (0 no damage, 100 complete death); for phytotoxicity rating AMARE: post-emerge, rating scale 0-100
Procedure, shortened: (§4)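 Fourteen days after spraying, crop and weed injury was graded visually from 0, no effect, to 100, every plant dead. Test substances were dissolved in acetone and applied at 15–1000 g ai/ha with a flat-fan nozzle. Application was either pre-emergence, one day after sowing, or post-emergence at the 2–3 leaf stage.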

[16] = tested on: lambsquarters (Chenopodium album, CHEAL); assay: as above; conditions: 14 days after application; for Post-emerge Herbicidal Activity, phytotoxicity rating CHEAL: rating scale 0-100 (0 no damage, 100 complete death); for phytotoxicity rating CHEAL: post-emerge, rating scale 0-100
Procedure, shortened: as §4

[17] = tested on: velvetleaf (Abutilon theophrasti, ABUTH); assay: as above; conditions: 14 days after application; for Post-emerge Herbicidal Activity, phytotoxicity rating ABUTH: rating scale 0-100 (0 no damage, 100 complete death); for phytotoxicity rating ABUTH: post-emerge, rating scale 0-100
Procedure, shortened: as §4

[18] = tested on: large crabgrass (Digitaria sanguinalis, DIGSA); assay: as above; conditions: 14 days after application; for Post-emerge Herbicidal Activity, phytotoxicity rating DIGSA: rating scale 0-100 (0 no damage, 100 complete death); for phytotoxicity rating DIGSA: post-emerge, rating scale 0-100
Procedure, shortened: as §4

[19] = tested on: green foxtail (Setaria viridis, SETVI); assay: as above; conditions: 14 days after application; for Post-emerge Herbicidal Activity, phytotoxicity rating SETVI: rating scale 0-100 (0 no damage, 100 complete death); for phytotoxicity rating SETVI: post-emerge, rating scale 0-100
Procedure, shortened: as §4

[20] = tested on: barnyardgrass (Echinochloa crus-galli, ECHCG); assay: as above; conditions: 14 days after application; for Post-emerge Herbicidal Activity, phytotoxicity rating ECHCG: rating scale 0-100 (0 no damage, 100 complete death); for phytotoxicity rating ECHCG: post-emerge, rating scale 0-100
Procedure, shortened: as §4

[21] = tested on: sicklepod (Cassia obtusifolia, CASOB); assay: as above; conditions: 14 days after application; for Post-emerge Herbicidal Activity, phytotoxicity rating CASOB: rating scale 0-100 (0 no damage, 100 complete death); for phytotoxicity rating CASOB: post-emerge, rating scale 0-100
Procedure, shortened: as §4

[22] = tested on: ivyleaf morningglory (Ipomoea hederacea, IPOHE); assay: as above; conditions: 14 days after application; for Post-emerge Herbicidal Activity, phytotoxicity rating IPOHE: rating scale 0-100 (0 no damage, 100 complete death); for phytotoxicity rating IPOHE: post-emerge, rating scale 0-100
Procedure, shortened: as §4

[23] = tested on: johnsongrass (Sorghum halepense, SORHA); assay: as above; conditions: 14 days after application; for Post-emerge Herbicidal Activity, phytotoxicity rating SORHA: rating scale 0-100 (0 no damage, 100 complete death); for phytotoxicity rating SORHA: post-emerge, rating scale 0-100
Procedure, shortened: as §4

[24] = 250 g ai/ha, rating scale 0-100

CCOC(=O)C(Cl)Cc1c(C)c(Cl)cc(F)c1-n1c(=O)cc(C(F)(F)F)n(C)c1=O (centres unmarked) [14-54]
phytotoxicity rating AMARE ([1]; 63 g ai/ha, rating scale 0-100): 20
phytotoxicity rating AMARE [1, 24]: 85
phytotoxicity rating CORN ([2]; 63 g ai/ha): 0
phytotoxicity rating CORN ([2]; 250 g ai/ha): 0
phytotoxicity rating RICE ([3]; 63 g ai/ha): 0
phytotoxicity rating RICE ([3]; 250 g ai/ha): 15
phytotoxicity rating AMBEL ([4]; 63 g ai/ha, rating scale 0-100): 0
phytotoxicity rating AMBEL [4, 24]: 0
phytotoxicity rating CHEAL ([5]; 63 g ai/ha, rating scale 0-100): 10
phytotoxicity rating CHEAL [5, 24]: 100
phytotoxicity rating ABUTH ([6]; 63 g ai/ha, rating scale 0-100): 0
phytotoxicity rating ABUTH [6, 24]: 70
phytotoxicity rating DIGSA ([7]; 63 g ai/ha, rating scale 0-100): 0
phytotoxicity rating DIGSA [7, 24]: 30
phytotoxicity rating SETVI ([8]; 63 g ai/ha, rating scale 0-100): 20
phytotoxicity rating SETVI [8, 24]: 80
phytotoxicity rating ECHCG ([9]; 63 g ai/ha, rating scale 0-100): 0
phytotoxicity rating ECHCG [9, 24]: 0
phytotoxicity rating CASOB ([10]; 63 g ai/ha, rating scale 0-100): 0
phytotoxicity rating CASOB [10, 24]: 10
phytotoxicity rating IPOHE ([11]; 63 g ai/ha, rating scale 0-100): 0
phytotoxicity rating IPOHE [11, 24]: 40
phytotoxicity rating SORHA ([12]; 63 g ai/ha, rating scale 0-100): 0
phytotoxicity rating SORHA [12, 24]: 30
Post-emerge phytotoxicity rating CORN (crop damage) ([13]; Rate 63 g ai/ha): 5
Post-emerge phytotoxicity rating CORN (crop damage) ([13]; Rate 250 g ai/ha): 15
Post-emerge phytotoxicity rating RICE (crop damage) ([14]; Rate 63 g ai/ha): 10
Post-emerge phytotoxicity rating RICE (crop damage) ([14]; Rate 250 g ai/ha): 10
Post-emerge Herbicidal Activity, phytotoxicity rating AMARE ([15]; Rate 63 g ai/ha): 40
Post-emerge Herbicidal Activity, phytotoxicity rating AMARE ([15]; Rate 250 g ai/ha): 50
Post-emerge Herbicidal Activity, phytotoxicity rating CHEAL ([16]; Rate 63 g ai/ha): 20
Post-emerge Herbicidal Activity, phytotoxicity rating CHEAL ([16]; Rate 250 g ai/ha): 60
Post-emerge Herbicidal Activity, phytotoxicity rating ABUTH ([17]; Rate 63 g ai/ha): 60
Post-emerge Herbicidal Activity, phytotoxicity rating ABUTH ([17]; Rate 250 g ai/ha): 80
Post-emerge Herbicidal Activity, phytotoxicity rating DIGSA ([18]; Rate 63 g ai/ha): 0
Post-emerge Herbicidal Activity, phytotoxicity rating DIGSA ([18]; Rate 250 g ai/ha): 10
Post-emerge Herbicidal Activity, phytotoxicity rating SETVI ([19]; Rate 63 g ai/ha): 10
Post-emerge Herbicidal Activity, phytotoxicity rating SETVI ([19]; Rate 250 g ai/ha): 10
Post-emerge Herbicidal Activity, phytotoxicity rating ECHCG ([20]; Rate 63 g ai/ha): 30
Post-emerge Herbicidal Activity, phytotoxicity rating ECHCG ([20]; Rate 250 g ai/ha): 30
Post-emerge Herbicidal Activity, phytotoxicity rating CASOB ([21]; Rate 63 g ai/ha): 0
Post-emerge Herbicidal Activity, phytotoxicity rating CASOB ([21]; Rate 250 g ai/ha): 30
Post-emerge Herbicidal Activity, phytotoxicity rating IPOHE ([22]; Rate 63 g ai/ha): 30
Post-emerge Herbicidal Activity, phytotoxicity rating IPOHE ([22]; Rate 250 g ai/ha): 80
Post-emerge Herbicidal Activity, phytotoxicity rating SORHA ([23]; Rate 63 g ai/ha): 0
Post-emerge Herbicidal Activity, phytotoxicity rating SORHA ([23]; Rate 250 g ai/ha): 0

Cc1c(Cl)cc(F)c(-n2c(=O)cc(C(F)(F)F)n(C)c2=O)c1NC(=O)C=Cc1ccccc1 [2-123]
phytotoxicity rating AMARE ([1]; 63 g ai/ha, scale 0-100): 100
phytotoxicity rating AMARE ([1]; 250 g ai/ha, scale 0-100): 100
phytotoxicity rating CORN (crop damage) ([2]; 63 g ai/ha): 0
phytotoxicity rating CORN (crop damage) ([2]; 250 g ai/ha): 15
phytotoxicity rating RICE (crop damage) ([3]; 63 g ai/ha): 30
phytotoxicity rating RICE (crop damage) ([3]; 250 g ai/ha): 80
phytotoxicity rating AMBEL ([4]; 63 g ai/ha, scale 0-100): 95
phytotoxicity rating AMBEL ([4]; 250 g ai/ha, scale 0-100): 100
phytotoxicity rating CHEAL ([5]; 63 g ai/ha, scale 0-100): 100
phytotoxicity rating CHEAL ([5]; 250 g ai/ha, scale 0-100): 100
phytotoxicity rating ABUTH ([6]; 63 g ai/ha, scale 0-100): 100
phytotoxicity rating ABUTH ([6]; 250 g ai/ha, scale 0-100): 100
phytotoxicity rating DIGSA ([7]; 63 g ai/ha, scale 0-100): 60
phytotoxicity rating DIGSA ([7]; 250 g ai/ha, scale 0-100): 100
phytotoxicity rating SETVI ([8]; 63 g ai/ha, scale 0-100): 80
phytotoxicity rating SETVI ([8]; 250 g ai/ha, scale 0-100): 100
phytotoxicity rating ECHCG ([9]; 63 g ai/ha, scale 0-100): 40
phytotoxicity rating ECHCG ([9]; 250 g ai/ha, scale 0-100): 80
phytotoxicity rating CASOB ([10]; 63 g ai/ha, scale 0-100): 60
phytotoxicity rating CASOB ([10]; 250 g ai/ha, scale 0-100): 90
phytotoxicity rating IPOHE ([11]; 63 g ai/ha, scale 0-100): 100
phytotoxicity rating IPOHE ([11]; 250 g ai/ha, scale 0-100): 100
phytotoxicity rating SORHA ([12]; 63 g ai/ha, scale 0-100): 30
phytotoxicity rating SORHA ([12]; 250 g ai/ha, scale 0-100): 70
phytotoxicity rating CORN ([13]; 63 g ai/ha): 35
phytotoxicity rating CORN ([13]; 250 g ai/ha): 40
phytotoxicity rating RICE ([14]; 63 g ai/ha): 60
phytotoxicity rating RICE ([14]; 250 g ai/ha): 70
phytotoxicity rating AMARE ([15]; 63 g ai/ha): 100
phytotoxicity rating AMARE ([15]; 250 g ai/ha): 100
phytotoxicity rating CHEAL ([16]; 63 g ai/ha): 100
phytotoxicity rating CHEAL ([16]; 250 g ai/ha): 100
phytotoxicity rating ABUTH ([17]; 63 g ai/ha): 100
phytotoxicity rating ABUTH ([17]; 250 g ai/ha): 100
phytotoxicity rating DIGSA ([18]; 63 g ai/ha): 10
phytotoxicity rating DIGSA ([18]; 250 g ai/ha): 30
phytotoxicity rating SETVI ([19]; 63 g ai/ha): 20
phytotoxicity rating SETVI ([19]; 250 g ai/ha): 30
phytotoxicity rating ECHCG ([20]; 63 g ai/ha): 10
phytotoxicity rating ECHCG ([20]; 250 g ai/ha): 20
phytotoxicity rating CASOB ([21]; 63 g ai/ha): 100
phytotoxicity rating CASOB ([21]; 250 g ai/ha): 100
phytotoxicity rating IPOHE ([22]; 63 g ai/ha): 100
phytotoxicity rating IPOHE ([22]; 250 g ai/ha): 100
phytotoxicity rating SORHA ([23]; 63 g ai/ha): 10
phytotoxicity rating SORHA ([23]; 250 g ai/ha): 30

From patent US6355799B1, “Substituted benzene compounds, process for their preparation, and herbicidal and defoliant compositions containing them” (ISK Americas Incorporated, priority 1997, dated 2002)
